The values that follow come from PubChem BioAssay AID1963853 (Molecular Pharmacology Branch, DTP, NCI, 2024).

For the assay, the system named is 266295-075-R-J1-PDC spheroid viability. The experiment in a line: Anticancer human tumor 266295-075-R-J1-PDC patient-derived head and neck squamous carcinoma cell line growth inhibition [POLQ]. To be noted: spheroids with HUVEC and MSC; for viability, T/C: stronger effect = lower value; for pIC50: curve of compound. The protocol: Multicellular complex tumor spheroid response to Polymerase (POL) inhibitors (novobiocin, ART-558, RP6685) in combination with a variety of drugs and investigational agents in selected tumor cell lines
The POL inhibitors (novobiocin, ART-558, and RP6685) were evaluated both individually and in combination with standard of care and investigational anticancer small molecules within a complex spheroid model of solid tumors. . Complex spheroids include a stromal component modeled by human endothelial cells (HUVEC) and fibroblasts modeled by human mesenchymal stem cells (MSCs). The concentration ranges selected for each drug and investigational agent were based upon clinically achievable concentrations if the clinical Cmax of the agent was known.
Compounds. The drugs and investigational agents: novobiocin (NSC847541), ART-558 (NSC835418), RP-6685 (NSC848927), peposertib (NSC802822), ceralasertib (NSC780249), elimusertib (NSC800525), camonsertib (NSC841442), AZD-1390 (NSC803789), olaparib (NSC753686), talazoparib (NSC767125), rucaparib (NSC756644), sotorasib (NSC818433), MRTX-1133 (NSC836407), SN-38 (NSC673596), topotecan (NSC609699), epotoside (NSC141540), doxorubicin (NSC123127), gemcitabine (NSC613327), 5-fluorouracil (NSC19893), paclitaxel (NSC125973), vemurafenib (NSC761431), MSA-2 (NSC828583), SN-011 (NSC837082), adavosertib (NSC754352), prexasertib (NSC758257), carboplatin (NSC241240) and oxaliplatin (NSC266046), were obtained from the National Cancer Institute (NCI) Developmental Therapeutics Program Chemical Repository (21). The FDA-approved anticancer drug set is available from the Developmental Therapeutics Program at https://dtp.cancer.gov/organization/dscb/obtaining/. […] The stock solutions were prepared in dimethyl sulfoxide (DMSO, Sigma-Aldrich, St. Louis, MO, cat. D2650), except for the platinum compounds which were prepared in saline (Quality Biological, Gaithersburg, MD, cat. 114-055-101), at 800-fold the tested concentration and stored at -70 degrees C prior to their use. All drugs and investigational agents were tested over a range starting from a high concentration at or near the clinical Cmax and decreasing in half-log increments. If the clinical Cmax for an agent had not been determined, the highest concentration tested was 10 microM, except for SN-38, which was tested at a high concentration of 1 microM.
Cell Culture. All cells were maintained in an incubator at 37 degrees C and 5% CO2 with 95% humidity. The PDC lines were cultured according to standard operating procedures established by the NCI PDMR (https://pdmr.cancer.gov). Table 3 of the manuscript, lists the cell lines along with the number of the three cell types plated to form the mct-spheroids and media for tumor cell growth. After thawing, all PDC lines, except 997537-175-T-J1-PDC and 415267-285-R-J2-PDC, were cultured in Matrigel-coated flasks prepared with a working solution of 1X Ham's F-12 nutrient mix, without supplementation (Thermo Fisher Scientific, cat. 11765054), 100 U/mL penicillin-streptomycin (Thermo Fisher Scientific, cat. 15140122), and 2.5% Matrigel (Corning Inc., Corning, NY, cat. 354248) for the first three passages. The two PDC lines 997537-175-T-J1-PDC and 415267-285-R-J2-PDC were cultured on uncoated flasks. The 857933-349-R-J2-PDC line was cultured in 6C/Colon 1B media containing advanced DMEM/F-12 (Thermo Fisher Scientific, cat. 12634028), 10 mM HEPES (Thermo Fisher Scientific, cat. 15630080), 1X GlutaMAX supplement (Thermo Fisher Scientific, cat. 35050061), 0.1 mg/mL primocin (InvivoGen, San Diego, CA, cat. ant-pm-2), 10% defined fetal bovine serum, heat inactivated (HyClone Laboratories Inc., Logan, UT, cat. SH30070.03HI), 50% L-WRN conditioned media (ATCC, cat. CRL-3276), 1.25 mM N-Acetyl-L-cysteine (Sigma-Aldrich, cat. A9165), 10 mM nicotinamide (Sigma-Aldrich, cat. N0636), 1X B-27 supplement (Thermo Fisher Scientific, cat. 17504044), 1X N-2 supplement (Thermo Fisher Scientific, cat. […]

pIC50: −log10 of the molar value. Several values for one entry are separate records, joined by “and”; a condition that tells them apart may be missing. Equal entries are not always repeated.
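Further: spheroids exposed to compounds for seven days before readout.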

For orientation: viability, T/C means the result in the treated group divided by that in the control group, in per cent. As a reminder, the pIC50 is the IC50 on a negative log10 scale, so that one unit is a factor of ten. On to `C=CC(=O)N1CCN(c2nc(=O)n(-c3c(C)ccnc3C(C)C)c3nc(-c4c(O)cccc4F)c(F)cc23)C(C)C1` (stereo not drawn), for which the negative logarithm of the IC50 (pIC50) was less than 5.00. The viability, T/C (compound 0.0316 µM) was 85.8% and 77.5% and 104%. The viability, T/C (compound 0.1 µM) is 98.6% and 98% and 100%. Moreover, the viability, T/C (compound 0.316 µM) is 100% and 98.1% and 101%. In addition, the viability, T/C (compound 1 µM) is 104% and 95.8% and 112%. For the same molecule, the viability, T/C (compound 3.16 µM) is 120% and 102% and 128%. Moreover, the viability, T/C (compound 10 µM) was 110% and 129% and 93.2%.

In the case of `C=CCn1c(=O)c2cnc(Nc3ccc(N4CCN(C)CC4)cc3)nc2n1-c1cccc(C(C)(C)O)n1`, the pIC50 is less than 6.00. Besides, the viability, T/C (compound 0.00316 µM) is 98.5% and 82.4% and 90.4%. Further, the viability, T/C (compound 0.01 µM) was 86.6% and 97.5% and 99.7%. The viability, T/C (compound 0.0316 µM) is 102% and 93.3% and 99.6%. The viability, T/C (compound 0.1 µM) was 127% and 114% and 84.3%. Further, the viability, T/C (compound 0.316 µM) was 83% and 93.8% and 89.9%. The viability, T/C (compound 1 µM) is 70% and 70.6% and 63.8%.

With `CC(=O)O[C@H]1C(=O)[C@@]2(C)[C@H]([C@H](OC(=O)c3ccccc3)[C@]3(O)C[C@H](OC(=O)[C@H](O)[C@@H](NC(=O)c4ccccc4)c4ccccc4)C(C)=C1C3(C)C)[C@]1(OC(C)=O)CO[C@@H]1C[C@@H]2O`, the negative-log IC50 (pIC50) was less than 5.52. Besides, the viability, T/C (compound 0.00949 µM) was 76.7% and 71.7% and 79%. Further, the viability, T/C (compound 0.03 µM) was 72.1% and 64.8% and 76%. In addition, the viability, T/C (compound 0.0949 µM) is 54.3% and 61.7% and 67.4%. In addition, the viability, T/C (compound 0.3 µM) is 80.9% and 69.8% and 75%. Also, where the note is “compound 0.949 µM”, the viability, T/C is 73% and 75.7% and 70.2%. For the same molecule, where the note is “compound 3 µM”, the viability, T/C was 61.1% and 82% and 77.6%.

As for `CC(C)n1c(=O)n(C)c2cnc3cc(F)c(-c4ccc(OCCCN5CCCCC5)nc4)cc3c21`, the negative logarithm of the IC50 (pIC50) was less than 5.00. Besides, the viability, T/C (compound 0.0316 µM) is 127% and 94.5% and 93.5%. Where the note is “compound 0.1 µM”, the viability, T/C was 74.1% and 94.9% and 97.8%. Further, the viability, T/C (compound 0.316 µM) is 107% and 111% and 96.5%. In addition, the viability, T/C (compound 1 µM) is 100% and 92.8% and 103%. Where the note is “compound 3.16 µM”, the viability, T/C was 89.6% and 91.6% and 94.1%. Moreover, the viability, T/C (compound 10 µM) was 70.6% and 64.5% and 76.9%.

Regarding `CC1COCCN1c1cc(-c2ccnn2C)c2ccnc(-c3ccn[nH]3)c2n1` (stereo not drawn), the pIC50 is 6.02 and 5.73 and 5.61. For the setting “compound 0.0316 µM”, the viability, T/C is 91% and 92.4% and 98.3%. Moreover, the viability, T/C (compound 0.1 µM) was 70.7% and 81.1% and 80.7%. For the same molecule, the viability, T/C (compound 0.316 µM) was 62.5% and 67.2% and 69.4%. The viability, T/C (compound 1 µM) is 45.2% and 52.3% and 59.2%. For the same molecule, the viability, T/C (compound 3.16 µM) was 47.1% and 49% and 53.5%. For the setting “compound 10 µM”, the viability, T/C was 36.6% and 36.9% and 32%.

For `CC1COCCN1c1cc(C2(S(C)(=N)=O)CC2)nc(-c2ccnc3[nH]ccc23)n1` (stereo not drawn), the pIC50 is less than 5.00. Also, the viability, T/C (compound 0.0316 µM) is 92.3% and 97.5% and 86.5%. For the same molecule, the viability, T/C (compound 0.1 µM) was 95.2% and 93.2% and 93.5%. Also, the viability, T/C (compound 0.316 µM) is 89.9% and 85.6% and 97.6%. Further, under “compound 1 µM”, the viability, T/C is 83.2% and 80% and 78.7%. In addition, under “compound 3.16 µM”, the viability, T/C was 73.2% and 87.5% and 76.5%. In addition, the viability, T/C (compound 10 µM) is 55.6% and 56% and 54.7%.

In the case of `CCCS(=O)(=O)Nc1ccc(F)c(C(=O)c2c[nH]c3ncc(-c4ccc(Cl)cc4)cc23)c1F`, the pIC50 is less than 5.00. For the same molecule, under “compound 0.0316 µM”, the viability, T/C was 123% and 120% and 97.3%. The viability, T/C (compound 0.1 µM) is 110% and 106% and 109%. Also, the viability, T/C (compound 0.316 µM) was 105% and 98.9% and 110%. In addition, the viability, T/C (compound 1 µM) is 113% and 136% and 117%. Also, where the note is “compound 3.16 µM”, the viability, T/C was 121% (2×) and 136%. In addition, the viability, T/C (compound 10 µM) was 141% and 162% and 187%.

`CC[C@@]1(O)C(=O)OCc2c1cc1n(c2=O)Cc2cc3c(CN(C)C)c(O)ccc3nc2-1`: the negative logarithm of the IC50 (pIC50) was less than 7.00. In addition, the viability, T/C (compound 0.000316 µM) was 80.3% and 92.4% and 96.2%. Also, the viability, T/C (compound 0.001 µM) is 96.8% and 98.5% and 96.1%. Also, the viability, T/C (compound 0.00316 µM) was 80.3% and 78.6% and 92.5%. The viability, T/C (compound 0.01 µM) is 80.8% and 95.8% and 96.8%. Also, for the setting “compound 0.0316 µM”, the viability, T/C was 89.2% and 93.9% and 103%. The viability, T/C (compound 0.1 µM) was 82.4% and 82.3% and 87.1%.

In the case of `CCc1c2c(nc3ccc(O)cc13)-c1cc3c(c(=O)n1C2)COC(=O)[C@]3(O)CC`, the negative-log IC50 (pIC50) is less than 6.00. In addition, the viability, T/C (compound 0.00316 µM) is 84.2% and 91.3% and 93.2%. The viability, T/C (compound 0.01 µM) was 77.4% and 78.1% and 89.5%. For the same molecule, the viability, T/C (compound 0.0316 µM) was 71.7% and 92.1% and 88.6%. Also, the viability, T/C (compound 0.1 µM) was 87% (2×) and 97.7%. Besides, the viability, T/C (compound 0.316 µM) was 95.2% and 104% and 109%. Besides, the viability, T/C (compound 1 µM) was 71.8% (2×) and 91.9%.
